Results on one molecule are retold here after patent US20250387381A1, “COMPOSITIONS AND METHODS FOR ENHANCED DRUG LOADING OF LONG-ACTING IN SITU FORMING IMPLANTS AND USES THEREOF” (The University of North Carolina at Chapel Hill, priority 2022, published 2025).

SMILES strings stand for the structures. In brackets after ≈: the same amount, converted by molar mass.

Data set [1] can be described thus: Stability of LA-RFB formulations stored at room temperature in the dark. The data set is classed as physicochemical. The following applies: solution of RFB in DMSO without polymer, same storage.
Procedure: At predetermined time points (3, 4, 6, 9, 12, 15 months of incubation) 10 μL of formulation was diluted in 1 mL of DMSO, then further diluted at 1:1000 in DMSO for analysis by UV-vis absorbance spectrometer and HPLC to measure the drug concentration and drug degradation. As a control, RFB dissolved in DMSO (20 μg mL^−1 RFB solution) was incubated in the dark at RT.
For a further data set, the system named is Mtb. The following applies: cited from earlier work.
The conditions of data set [2]: human, in vivo, po, 150 mg; cited from earlier work.
Data set [3] in a line: RFB saturated solubility in DMSO and NMP with or without amphiphilic additives. The following applies: for solubility at 1 day: organic solvent or mixture, thermodynamic from solid.

Regarding `CO[C@H]1/C=C/O[C@@]2(C)Oc3c(C)c(O)c4c(c3C2=O)C2=NC3(CCN(CC(C)C)CC3)NC2=C(NC(=O)/C(C)=C\C=C\[C@H](C)[C@H](O)[C@@H](C)[C@@H](O)[C@@H](C)[C@H](OC(C)=O)[C@@H]1C)C4=O` [RFB, Rifabutin], in data set [1], the “Residual RFB after 3 months” value came to 67%, the “Residual RFB after 4 months” value came out at 53% and the “Residual RFB after 6 months” value is 25%. The “RFB MIC” value in the data set on Mtb is 0.064 µg/mL. The Cmax (usually the highest concentration seen after dosing) in data set [2] is 460 ng/mL. In addition, the “Highest RFB solubility in DMSO with Kolliphor HS 15” value in data set [3] (0.45% Kolliphor HS 15) is on record as 564±7 mg RFB per mL of DMSO. Besides, in data set [3] (Highest RFB solubility in NMP with Kolliphor HS 15, 8.8% Kolliphor HS 15), the solubility (in general, the dissolved amount per volume that the medium holds) at 1 day turned out to be 702 ± 10 mg/mL (≈ 829 mM). Also, the solubility at 1 day in data set [3] (RFB maximum solubility in DMSO, DMSO alone, room temperature, mean±SD) worked out at 202 ± 22 mg/mL (≈ 238 mM). Moreover, the solubility at 1 day in data set [3] (RFB maximum solubility in NMP, NMP without additive, room temperature, mean±SD) came out at 148 ± 34 mg/mL (≈ 175 mM).
